Results as given in US10138226B2, “Benzimidazol-2-amines as MIDH1 inhibitors” (Bayer Pharma Aktiengesellschaft, priority 2014, dated 2018).

Key:
IDH1 R132H enzyme = IDH1 R132H enzyme (Homo sapiens (Human), UniProt O75874, R132H); assay: Mutant IDH1 R132H biochemical assay; conditions: NADPH consumption, luminescent readout, 250 μM α-KG, 1 μM NADPH, 32° C., 30 minutes, test range 0.002-10 μM; also: 1.5 nM enzyme
Experimental: mIDH1 catalyzes the NADPH-dependent reduction of alpha-ketoglutarate (α-KG) to (2R)-2-hydroxyglutarate (2-HG). NADPH consumption was measured by luminescent readout.
The biochemical reactions were performed at 32° C. in 384-well plates using a reaction volume of 41 μl and the following assay buffer conditions: 50 mM Tris pH 7.5, 100 mM NaCl, 20 mM MgCl2, 0.05% BSA, 0.01% Brij, 1 μM NADPH, and 250 μM α-KG. […] Test compounds were used in a concentration range between 0.002 and 10 μM. The final DMSO concentration was 2.4%.
The reaction was incubated for 30 minutes, then 40 μl of detection mix (0.75 μg/ml Luciferase, 0.02 U/ml Oxidoreductase, 4 μg/ml FMN, 2 μl/ml Decanal/Ethanol, 50 mM Tris pH 7.5, 0.5% Glycerin, 0.01% Tween-20, 0.05% BSA) was added. Luminescence was measured on a luminescent reader (10 seconds measuring time, 1 second integration period, 30% sensitivity). The decrease in luminescence is proportional to mIDH1 activity. IC50 values are determined by interpolation from plots of relative luminescence versus inhibitor concentration.

[1] = tested on: LN229 R132H cells overexpressing mutated isocitrate dehydrogenase (mIDH); assay: Mutant IDH1 cellular assay (2-HG levels in medium); assay type: cell-based; conditions: 2-HG in medium of LN229 R132H cells, 24 hours incubation, fluorescence readout
Experimental: Mutant IDH1 Cellular Assay
Levels of (2R)-2-hydroxyglutarate (2HG) were measured in medium of a cell line with overexpression of mutated isocitrate dehydrogenase (mIDH) protein. mIDH catalyzes the NADPH-dependent reduction of alpha-ketoglutarate to 2-HG. Cells (LN229 R132H, Mohrenz et al., Apoptosis (2013) 18:1416-1425) were grown in DMEM containing 10% FCS. They were harvested by trypsin and seeded into 96-well plates. Cells were incubated overnight at 37° C. in 5% CO2. The next day test compounds were added to each cell well. The final concentration of DMSO was 0.1% and DMSO controls were included. The plates were then placed in an incubator for 24 hours.
2-HG was measured according to Balss et al. (Acta Neuropathol (2012) 124: 883-891). Briefly, HClO4 was added to each well and the plates were centrifuged. Aliquots are removed and incubated with hydroxyglutarate dehydrogenase (HGDH), diaphorase, NAD+, and resazurin. The conversion of resazurin to resorufin was detected by fluorescence spectroscopy at Ex 540 nm Em 600 nm. The increase in fluorescence is proportional to 2-HG production. IC50 values are determined by interpolation from plots of relative fluorescence vs inhibitor concentration.

IDH1 R132H enzyme, sequence (O75874 whole entry R132H): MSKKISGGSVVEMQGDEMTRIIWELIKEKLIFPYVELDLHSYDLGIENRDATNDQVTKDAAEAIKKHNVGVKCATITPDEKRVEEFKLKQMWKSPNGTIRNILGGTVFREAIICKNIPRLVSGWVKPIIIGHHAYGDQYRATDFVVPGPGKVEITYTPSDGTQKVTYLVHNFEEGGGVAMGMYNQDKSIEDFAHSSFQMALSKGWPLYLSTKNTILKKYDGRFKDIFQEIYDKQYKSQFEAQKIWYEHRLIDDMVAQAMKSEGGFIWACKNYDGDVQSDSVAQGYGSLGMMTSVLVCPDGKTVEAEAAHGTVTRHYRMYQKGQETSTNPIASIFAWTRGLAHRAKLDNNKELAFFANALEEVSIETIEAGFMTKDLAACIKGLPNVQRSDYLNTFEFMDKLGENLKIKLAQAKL

SMILES: C[C@@H]1C[C@H](n2c(Nc3ccc(OC(F)(F)F)cc3)nc3ccc(C(=O)N(C)C)cc32)CC(C)(C)C1 (single isomer, unassigned; enantiomer a) [Example 2-20-1, (±) N,N-dimethyl-2-{[4-(trifluoromethoxy)phenyl]amino}-1-[(cis)-3,3,5-trimethylcyclohexyl]-1H-benzimidazole-6-carboxamide, enantiomer A]
- IC50 (IDH1 R132H enzyme): 80 nM
- IC50 [1]: 1.8 µM

SMILES: COC(=O)CN(C)C(=O)c1ccc2nc(Nc3ccc(OC(F)(F)F)cc3)n([C@H]3C[C@@H](C)CC(C)(C)C3)c2c1 (racemic) [Example 2-9, (±) methyl N-methyl-N-[(2-{[4-(trifluoromethoxy)phenyl]amino}-1-[(cis)-3,3,5-trimethylcyclohexyl]-1H-benzimidazol-6-yl)carbonyl]glycinate]
- IC50 (IDH1 R132H enzyme): 250 nM
- IC50 ([1]; Homo sapiens, LN-229, 24 h): 9 µM

SMILES: C[C@@H]1C[C@H](n2c(Nc3ccc(OC(F)(F)F)cc3)nc3ccc(C(=O)N(C)C)cc32)CC(C)(C)C1 (racemic) [Example 2-20, (±) N,N-dimethyl-2-{[4-(trifluoromethoxy)phenyl]amino}-1-[(cis)-3,3,5-trimethylcyclohexyl]-1H-benzimidazole-6-carboxamide]
- IC50 (IDH1 R132H enzyme): 100 nM
- IC50 ([1]; Homo sapiens, LN-229, 24 h): 2 µM

SMILES: C[C@@H]1C[C@H](n2c(Nc3ccc(OC(F)(F)F)cc3)nc3ccc(C(=O)N(C)C)cc32)CC(C)(C)C1 (single isomer, unassigned; enantiomer b) [Example 2-20-2, (±) N,N-dimethyl-2-{[4-(trifluoromethoxy)phenyl]amino}-1-[(cis)-3,3,5-trimethylcyclohexyl]-1H-benzimidazole-6-carboxamide, enantiomer B]
- IC50 (IDH1 R132H enzyme): 200 nM
- IC50 [1]: 4.3 µM

SMILES: COC(=O)c1ccc2nc(Nc3ccc(OC(F)(F)F)cc3)n([C@H]3C[C@@H](C)CC(C)(C)C3)c2c1 (racemic) [Example 2-1, (±) methyl 2-{[4-(trifluoromethoxy)phenyl]amino}-1-[(cis)-3,3,5-trimethylcyclohexyl]-1H-benzimidazole-6-carboxylate]
- IC50 ([1]; Homo sapiens, LN-229, 24 h): 3.2 µM
